# Source: ChEMBL document CHEMBL1131982, “N-[2-(1-cyclohexenyl)ethyl]-N'-[2-(5-bromopyridyl)]-thiourea and N'-[2-(1-cyclohexenyl)ethyl]-N'-[2-(5-chloropyridyl)]-thiourea as potent inhibitors of multidrug-resistant human immunodeficiency virus-1” (Bioorg Med Chem Lett, 1999)
# Assays:
# [1] = Anti-HIV activity by its ability to inhibit the replication of HIV-1 strain A17 (Y181C) in peripheral blood mononuclear cells (PBMC); type: functional; details: Homo sapiens
# [2] = Anti-HIV activity by its ability to inhibit the replication of HIV-1 strain A17 variant (Y181C,K103N) in peripheral blood mononuclear cells (PBMC); type: functional, Homo sapiens
# [3] = Anti-HIV activity by its ability to inhibit the replication of HIV-1 strain HTLV IIIB in peripheral blood mononuclear cells (PBMC); type: functional; details: Homo sapiens
# [4] = Anti-HIV activity by its ability to inhibit the replication of HIV-1 strain RT-MDR(V106A) in peripheral blood mononuclear cells (PBMC); type: functional; details: Homo sapiens
# [5] = Compound was evaluated for the cytotoxic activity by using Microculture Tetrazolium assay (MTA); type: functional
# [6] = target: Human immunodeficiency virus type 1 reverse transcriptase (Human immunodeficiency virus 1, UniProt Q72547); assay: Inhibitory activity against recombinant HIV-1 reverse transcriptase (rRT)
Compound,IC50 [1],IC50 [2],IC50 [3],IC50 [4],CC50 [5],IC50 [6]
S=C(NCCc1ccccn1)Nc1ccc(Br)cn1 [TROVIRDINE],500 nM,> 100000 nM,7 nM,20 nM,> 100000 nM,
CC1(C)C2CC(C/N=C(\S)Nc3ccc(Br)cn3)CC1C2 (stereo not given),,,,,,> 100000 nM
CCOCn1c(Cc2ccccc2)c(C(C)C)c(=O)[nH]c1=O [EMIVIRINE],,,,300 nM,> 100000 nM,
S=C(NCC12CC3CC(CC(C3)C1)C2)Nc1ccc(Br)cn1,,,,,,> 100000 nM
FC(F)(F)c1ccc(/N=C(\S)NCCC2=CCCCC2)nc1,300 nM,> 100000 nM,79 nM,38 nM,> 100000 nM,4000 nM
Cc1ccnc2c1NC(=O)c1cccnc1N2C1CC1 [NEVIRAPINE],> 100000 nM,> 100000 nM,34 nM,5000 nM,10500 nM,
CC(C)Nc1cccnc1N1CCN(C(=O)c2cc3cc(NS(C)(=O)=O)ccc3[nH]2)CC1 [DELAVIRDINE],50000 nM,> 100000 nM,9 nM,400 nM,3600 nM,
Cc1cn([C@H]2C[C@H](N=[N+]=[N-])[C@@H](CO)O2)c(=O)[nH]c1=O [ZIDOVUDINE],6 nM,4 nM,,200 nM,> 100000 nM,
S=C(NCCC1=CCCCC1)Nc1ccc(Cl)cn1,68 nM,30000 nM,3 nM,1 nM,> 100000 nM,500 nM
S=C(NCCC1=CCCCC1)Nc1ccc(Br)cn1,,18700 nM,3 nM,1 nM,> 100000 nM,400 nM
